Consider twelve compounds from ChEMBL document CHEMBL1156697, “Investigations concerning the COX/5-LOX inhibiting and hydroxyl radical scavenging potencies of novel 4,5-diaryl isoselenazoles” (Eur J Med Chem, 2008).

In assay [1] the target is T1, Prostaglandin G/H synthase 1 (Bos taurus, UniProt O62664).
T1 sequence (O62664 whole entry): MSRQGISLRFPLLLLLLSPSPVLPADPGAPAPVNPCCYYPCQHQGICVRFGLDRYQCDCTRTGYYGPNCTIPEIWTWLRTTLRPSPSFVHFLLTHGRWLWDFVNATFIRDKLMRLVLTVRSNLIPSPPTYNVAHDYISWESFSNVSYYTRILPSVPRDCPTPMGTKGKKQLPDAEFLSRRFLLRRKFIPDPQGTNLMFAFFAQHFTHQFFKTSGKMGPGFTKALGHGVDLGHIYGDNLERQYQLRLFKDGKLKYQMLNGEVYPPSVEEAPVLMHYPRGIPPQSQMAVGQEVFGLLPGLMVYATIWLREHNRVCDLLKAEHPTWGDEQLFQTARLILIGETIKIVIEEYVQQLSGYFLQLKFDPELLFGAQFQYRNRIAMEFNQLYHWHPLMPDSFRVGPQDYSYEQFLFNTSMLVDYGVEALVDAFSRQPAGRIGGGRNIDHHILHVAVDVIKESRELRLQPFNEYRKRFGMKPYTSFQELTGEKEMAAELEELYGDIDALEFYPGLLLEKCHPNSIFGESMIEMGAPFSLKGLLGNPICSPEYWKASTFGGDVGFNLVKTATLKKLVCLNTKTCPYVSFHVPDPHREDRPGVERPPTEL
Briefly: Inhibition of bovine COX1.

Assay [2] addresses T2, Prostaglandin G/H synthase 2 (Homo sapiens) (UniProt P35354).
T2 sequence (whole entry): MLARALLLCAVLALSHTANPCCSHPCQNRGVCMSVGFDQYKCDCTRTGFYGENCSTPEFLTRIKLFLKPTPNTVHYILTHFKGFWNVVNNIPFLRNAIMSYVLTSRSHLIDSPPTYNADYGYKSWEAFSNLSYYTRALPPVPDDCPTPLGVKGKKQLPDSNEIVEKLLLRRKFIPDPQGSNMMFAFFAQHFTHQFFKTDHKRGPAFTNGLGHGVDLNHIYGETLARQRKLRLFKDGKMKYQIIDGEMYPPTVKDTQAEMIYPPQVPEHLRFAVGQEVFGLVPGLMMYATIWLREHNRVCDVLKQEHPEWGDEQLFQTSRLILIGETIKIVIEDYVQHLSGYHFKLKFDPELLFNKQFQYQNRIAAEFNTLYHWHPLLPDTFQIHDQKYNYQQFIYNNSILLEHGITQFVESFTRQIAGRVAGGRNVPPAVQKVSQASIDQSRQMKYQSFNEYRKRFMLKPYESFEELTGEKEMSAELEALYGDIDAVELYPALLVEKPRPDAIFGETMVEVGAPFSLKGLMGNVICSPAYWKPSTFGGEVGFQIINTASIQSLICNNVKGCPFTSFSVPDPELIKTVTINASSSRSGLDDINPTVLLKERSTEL
Briefly: Inhibition of human COX2 at 10 uM.

Assay [3] is described as follows: Antioxidant activity assessed as hydroxyl radical scavenging activity at 100 uM. In kind it is functional.
For assay [4], the target named is T3, Prostaglandin G/H synthase 2 (Homo sapiens, UniProt P35354).
T3 sequence (P35354 whole entry): T2 sequence (whole entry)

Assay [5] in a line: Inhibition of bovine 5LOX.
Assay [6] addresses T4, Prostaglandin G/H synthase 1 (Bos taurus) (UniProt O62664).
T4 sequence (whole entry): T1 sequence (O62664 whole entry)
Nature of the assay: Inhibition of bovine COX1 at 10 uM.

What is called pIC50 is the negative decadic logarithm of the IC50, by convention in mol/L. A lower pIC50 goes with a large IC50. Broadly, the inhibition is the relative decrease from the control value, in per cent.

pIC50: −log10 of the molar value.

Take `Cc1ccc(-c2cn[se]c2-c2ccc(Cl)cc2)cc1`: the pIC50 in assay [1] is 6.70.
Consider `COc1ccc(-c2cn[se]c2-c2ccc(Cl)cc2)cc1`, for which, in assay [1], the pIC50 was 8.00. In assay [2], this compound gave an inhibition of 16%.
The corresponding values for `COc1ccc(-c2[se]ncc2-c2ccc(Cl)cc2)cc1` are 7.70 and 17%.
In the case of `COc1ccc(-c2cn[se]c2-c2ccc(OC)cc2)cc1`, the inhibition in assay [3] worked out at 14%. In addition, the pIC50 in assay [1] is 8.22; in assay [4], 5.10.
With `Cc1ccc(-c2cc(C(F)(F)F)nn2-c2ccc(S(N)(=O)=O)cc2)cc1`, the inhibition in assay [3] is 27%.
The compound `CC1(C)Cc2c(-c3ccccc3)c(-c3ccc(Cl)cc3)c(CC(=O)O)n2C1` [LICOFELONE] showed a pIC50 in assay [5] of 6.74.
`Cc1ccc(-c2[se]ncc2-c2ccc(Cl)cc2)cc1` gave a pIC50 in assay [1] of 7.30.
`CC(Cc1ccc(O)c(O)c1)C(C)Cc1ccc(O)c(O)c1` (stereo unspecified) [NORDIHYDROGUAIARETIC ACID] had a pIC50 in assay [5] of 6.00. The inhibition in assay [6] is 31%; in assay [2], 10%.
With `COc1ccc(-c2[se]ncc2-c2ccc(C)cc2)cc1`, the negative logarithm of the IC50 (pIC50) in assay [1] is 7.70.
Same read-out and setting: the same measure for `O=c1c2ccccc2[se]n1-c1ccccc1` [EBSELEN]: 5.68.
As to `Clc1ccc(-c2cn[se]c2-c2ccc(Cl)cc2)cc1`, in assay [1], the pIC50 is 6.70. This pIC50 is 1.02 log units higher than that of the compound before.
For the compound `CS(=O)(=O)c1ccc(-c2[se]ncc2-c2ccc(F)cc2)cc1`, the figures for the pIC50 in assay [5] and in assay [4] were 5.10 and 6.22, respectively. In addition, the inhibition in assay [6] was 38%; in assay [3] it was 34%.
